Experimental data: patent US8563054B2, “Anti-inflammatory agent” (Maruzen Pharmaceuticals Co., Ltd., priority 2005, dated 2013)
Converted amounts (≈) assume the structure as drawn.

Columns and labels:
[1] = molecular target: T1, hyaluronidase (Type IV-S, from bovine testis) (Bos taurus, UniProt Q2YDK3); assay: Hyaluronidase activity inhibition assay; type: biochemical; conditions: pH 3.5, 37° C., by interpolation
T1 construct: hyaluronidase solution (Type IV-S (from bovine testis))
T1 sequence (Q2YDK3 1-553): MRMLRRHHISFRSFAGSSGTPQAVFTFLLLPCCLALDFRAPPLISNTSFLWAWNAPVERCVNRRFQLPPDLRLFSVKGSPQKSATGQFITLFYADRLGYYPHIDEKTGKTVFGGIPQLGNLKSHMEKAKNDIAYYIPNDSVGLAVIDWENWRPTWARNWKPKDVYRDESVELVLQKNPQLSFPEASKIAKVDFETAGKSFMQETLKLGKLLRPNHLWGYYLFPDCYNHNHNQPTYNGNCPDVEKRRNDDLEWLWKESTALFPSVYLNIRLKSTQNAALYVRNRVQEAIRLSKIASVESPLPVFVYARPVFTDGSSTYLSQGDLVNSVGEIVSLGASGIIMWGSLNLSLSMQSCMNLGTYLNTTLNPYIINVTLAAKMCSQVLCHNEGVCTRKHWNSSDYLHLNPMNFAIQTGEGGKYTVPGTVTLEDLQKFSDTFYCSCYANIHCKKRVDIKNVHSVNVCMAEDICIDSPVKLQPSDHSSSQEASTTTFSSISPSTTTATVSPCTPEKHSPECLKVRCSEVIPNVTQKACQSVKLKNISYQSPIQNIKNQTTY
Method: For the extracts and purified materials prepared in Production Examples 1 to 5 (hereinafter, may be referred to as “sample”), inhibitory effect on hyaluronidase activity was tested as follows.
First, 0.1 mL of hyaluronidase solution (Type IV-S (from bovine testis; SIGMA 400 NF units/mL) was added to 0.1 mol/L acetic acid buffer (pH 3.5) in which each sample was dissolved, and allowed to react at 37° C. for 20 minutes.
Next, 0.2 mL of 2.5 mmol/L calcium chloride was added as an activating agent and allowed to react at 37° C. for 20 minutes. To this solution, 0.5 mL of 0.4 mg/mL potassium hyaluronate solution (from rooster comb) was added and allowed to react at 37° C. for 40 minutes. […] After that, absorbance at the wavelength of 585 nm was determined.
Next, similar operations and absorbance determination were performed without addition of enzyme. Further, as a control, using distillated water instead of sample solution, similar operations and absorbance determination were performed.
From the results of the measurements mentioned above, the percentage inhibition of hyaluronidase activity was calculated according to the following formula 1: % Inhibition of hyaluronidase activity=[1−(St−Sb)/(Ct−Cb)]×100 <Formula 1> […]
Next, the sample concentration was reduced in a stepwise manner, and the above-mentioned percentage inhibition of hyaluronidase activity was measured. […]

[2] = system: rat basophilic leukemia cells (RBL-2H3); assay: Assay of inhibitory effect on hexosaminidase release (indicator of histamine release); type: cell-based; conditions: RBL-2H3, DNP-specific IgE / DNP-BSA stimulation; by interpolation
Method: For the extracts and purified materials prepared in Production Examples 1 to 5 (hereinafter, may be referred to as “sample”), inhibitory effect on hexosaminidase release was tested as follows. Since hexosaminidase is also released simultaneously upon release of to histamine inside a cell, the inhibitory effect on histamine release can be evaluated using hexosaminidase release as an indicator of histamine release.
First, rat basophilic leukemia cells (RBL-2H3) were cultured using a medium (S-MEM medium with 15% FBS; hereinafter the same) placed in 25 mL culture flasks, and then cells were collected by trypsin treatment. […]
Then, release was stopped by leaving the 96 well plate at rest on ice. […] After completion of the reaction, 250 μL of 0.1 mol/L Na2CO3/NaHCO3 was added to each well, and the absorbance at the wavelength of 415 nm was determined.
Next, as a blank test, the absorbance of a mixture of 10 μl it of cell supernatant and 250 μL of 0.1 mol/L Na2CO3/NaHCO3 at the wavelength of 415 nm was determined and was used for correction.
From the results of the measurements mentioned above, the percentage inhibition of hexosaminidase release was determined according to the following formula 2: % Inhibition of hexosaminidase release=[1−(B−C)/A]×100 <Formula 2> […]

[3] = system: rabbit washed platelet suspension; assay: Platelet aggregation inhibitory effect (collagen-induced, washed platelets); type: cell-based; conditions: collagen as aggregation inducing agent, by interpolation
Method: For the extracts and purified materials prepared in Production Examples 1 to 5 (hereinafter, may be referred to as “sample”), inhibitory effect on platelet aggregation was tested as follows.
First, rabbit blood, which was collected with the addition of 1/10 amount of 77 mmol/L EDTA (pH 7.4), was centrifuged (180×g, 10 minutes, room temperature) to obtain platelet suspension. Next, the platelet suspension was centrifuged (810×g, 10 minutes, 4° C.), and the supernatant was removed to obtain platelet. This was suspended in platelet washing solution (0.15 mol/L sodium chloride: 0.15 mol/L Tris-HCL buffer (pH 7.4): 77 mmol/L EDTA (pH7.4)=90:8:2), centrifuged in the same way as mentioned above. […]
Next, to 222 μL of the prepared washed platelet suspension, 1 μL of 200 mmol/L calcium chloride solution was added and allowed to react at 37° C. for 1 minute. […] Separately, rate of platelet aggregation, B, was determined in a similar operation to that mentioned above except that the solvent of sample solution was added instead of the sample solution. % Inhibition of platelet aggregation=[(B−A)/B]×100 <Formula 3> […]
Next, the sample concentration was reduced in a stepwise manner, and the above-mentioned percentage inhibition of platelet aggregation was measured. The sample concentration, at which 50% of platelet aggregation is inhibited, was determined by interpolation. […]

SMILES | Sample concentration for 50% inhibition of hyaluronidase activity [1] [µg/mL] | Sample concentration for 50% inhibition of hexosaminidase release [2] [µg/mL] | Sample concentration for 50% inhibition of platelet aggregation [3] [µg/mL] | IC50 ([1]; read-out: Sample concentration for 50% inhibition of hyaluronidase activity (converted)) [µM] | IC50 ([3]; Oryctolagus cuniculus, Platelet, read-out: Sample concentration for 50% inhibition of platelet aggregation) [µg/mL]
C=CC(C)(C)c1cc(/C=C/C(=O)c2ccc(O)cc2)c(OC)cc1O [Licochalcone A of Production Example 5, licochalcone A] | 17.2 | 23.5 | 79.7 | – | –
CC1(C)C=Cc2c(ccc3c2OC[C@@H](c2ccc(O)cc2O)C3)O1 [Glabridin of Production Example 4, glabridin] | – | – | – | 56.4 | 400 (≈ 1230 µM)
